Measurements published in patent US5871937A, “Acute phase protein modulating endotoxic activity of lipopolysaccharides, assay methods and polypeptides” (priority 1997, dated 1999).
Where two headings read alike, the source gives them in different places.

B1: rabbit CRP: rabbit C-reactive protein (protein, UniProt P02742 21-225, looked up)
C-reactive protein: AGMHKKAFVFPKESDNSYVSLNAQLKKPLKAFTVCLYFYTDLSMTRGYSIFSYATRRQFNEILLFWSKDIGYSFSVGGDEIIFKVSDIPVDPTHLCASWESSTGIAELWVDGKPMVRKSLKKGYILGPEASIILGQDQDSFGGSFEKQQSLVGDIGNVNMWDYALSPEEINTIYAGGTFSPNVLDWRELTYQVRGEVHVKPQLWP
B2: LBP: acute phase glycoprotein of about 60 kD that binds LPS and retards its binding to HDL (protein, UniProt P17454 27-482, looked up)
Lipopolysaccharide-binding …: TNPGLITRITDKGLEYAAREGLLALQRKLLEVTLPDSDGDFRIKHFGRAQYKFYSLKIPRFELLRGTLRPLPGQGLSLDISDAYIHVRGSWKVRKAFLRLKNSFDLYVKGLTISVHLVLGSESSGRPTVTTSSCSSDIQNVELDIEGDLEELLNLLQSQIDARLREVLESKICRQIEEAVTAHLQPYLQTLPVTTQIDSFAGIDYSLMEAPRATAGMLDVMFKGEIFPLDHRSPVDFLAPAMNLPEAHSRMVYFSISDYVFNTASLAYHKSGYWNFSITDAMVPADLNIRRTTKSFRPFVPLLANLYPNMNLELQGTVNSEQLVNLSTENLLEEPEMDIEALVVLPSSAREPVFRLGVATNVSATLTLNTRKITGFLKPGRLQVELKESKVGGFNVELLEALLNYYILNNLYPKVNEKLAHRFPLPLLRHIQLYDLLLQTHENFLLVGANIQYRRV
B3: BPI: bactericidal/permeability increasing protein, a product of neutrophils (protein, UniProt P17213 32-487, looked up)
Bactericidal …: VNPGVVVRISQKGLDYASQQGTAALQKELKRIKIPDYSDSFKIKHLGKGHYSFYSMDIREFQLPSSQISMVPNVGLKFSISNANIKISGKWKAQKRFLKMSGNFDLSIEGMSISADLKLGSNPTSGKPTITCSSCSSHINSVHVHISKSKVGWLIQLFHKKIESALRNKMNSQVCEKVTNSVSSELQPYFQTLPVMTKIDSVAGINYGLVAPPATTAETLDVQMKGEFYSENHHNPPPFAPPVMEFPAAHDRMVYLGLSDYFFNTAGLVYQEAGVLKMTLRDDMIPKESKFRLTTKFFGTFLPEVAKKFPNMKIQIHVSASTPPHLSVQPTGLTFYPAVDVQAFAVLPNSSLASLFLIGMHTTGSMEVSAESNRLVGELKLDRLLLELKHSNIGPFPVELLQDIMNYIVPILVLPRVNEKLQKGFPLPTPARVQLYNVVLQPHQNFLLFGADVVYK

Columns and labels:
purified lapine LBP [1] = biological target: T1, purified lapine LBP (Oryctolagus cuniculus, UniProt P17454); test: Microtiter binding assay: inhibition of LBP binding to Re595 LPS-coated plates; set-up: species or system rabbit; conditions: for Inhibition of LBP binding to LPS plate, in words: qualitative analysis of Table IV; for IC50: read-out: ED50 (the source's name) (converted)
T1 construct: the mature secreted protein present in impure form in acute phase sera; from tissue; host or cells: acute phase rabbit serum (silver nitrate induced), Bio-Rex 70 and Mono-Q columns
Excerpt: (§1) The binding of purified lapine LBP to LPS immobilized on plastic microtiter plates has also been examined. The presence of LBP bound to LPS was detected with goat anti-rabbit LBP and peroxidase conjugated rabbit anti-goat IgG.
The data from these studies are shown in Table IV, below, where the numerical results are the concentrations necessary to reduce the binding of 1 microgram (ug)/ml LBP to the plate by 50 percent; i.e., ED50. It is noted that in some instances, the structure of the inhibitor is either not fully defined or the inhibitor is heterogeneous, thereby preventing a calculation of a molar concentration for ED50.
(§2) Microtiter plates were coated with LPS by incubating 100 ul/well of 30 ug/ml Re595 LPS in 0.1M Na2 Co3, 20 mM EDTA, pH 9.6 for 3 hours at 37°. The LPS solution was flicked out, the plates rinsed thoroughly under running water and air dried overnight. The binding properties of the dried, LPS-coated plates remain unchanged for up to eight weeks. Excess binding sites were then blocked with 200 ul/well of 10 mg/ml BSA in 50 mM HEPES, 0.15M NaCl, pH 7.4 (HS buffer) for 30 minutes at 37° temperature with agitation, after which the BSA solution was flicked out.
LBP samples, APRS, or NRS were added in a total volume of 100 ul/well diluted in 1 mg/ml BSA in HS buffer. Binding of LBP was allowed to occur for 3 hours at 37°. The plate was then rinsed 3 times with 200 ul/well of 1 mg/ml BSA in HS buffer with agitation over a 10 minute interval.
Goat anti-LBP serum, 100 ul/well, diluted 2000 times in 1 mg/ml BSA in HS buffer was then incubated in the wells for 2 hours at 37°. The anti-LBP antiserum was then rinsed out as above and replaced for 1 hour at room temperature with 100 ul/well of peroxidase conjugated rabbit anti-goat IgG diluted 2500 times in 1 mg/ml BSA.
(§3) Finally, 100 ul/well o-phenylenediamine solution (4 mM o-phenylenediamine, 2.3 mM H2 O2, 50 mM citric acid, 133 mM Na2 HPO4, pH 5.0) were added and the resulting composition maintained until sufficient color had developed (5-15 minutes). The reaction was stopped by addition of 100 ul/well 5M H2 SO4 and the absorbance at 490 nm of each well was quantitated in a microtiter plate reader. Mean absorbances and standard errors of the means were calculated from 4-8 replicates of each well.
Inhibition of LBP binding to the plate was studied by premixing the compound under study at the desired concentration with 1 ug/ml purified LBP for 10 minutes at 37° before adding the mixture to the microtiter plate.

purified lapine LBP [2] = biological target: T1, purified lapine LBP; test: Binding of purified lapine LBP to LPS types and lipid A partial structures (microtiter plate); conditions: detected with goat anti-rabbit LBP and peroxidase conjugated rabbit anti-goat IgG
Protocol: as §1
(§4) Binding affinities of LBP for LPS are near 10^9 m^-1.
as §2, with “out. […]” for “out.”
as §3

[3] = NRS reconstitution assay for LBP activity (C1.3 formation, retardation of LPS binding to HDL); type: biochemical, rabbit; conditions: added to NRS
Protocol: Two examples of the NRS reconstitution assay for lipopolysaccharide binding protein (LBP) activity in the lapine (rabbit) system are shown in FIG. 5. In control studies, no systematic dependence on the assay results were observed when smaller total assay volumes; i.e., 0.5 or 0.25 ml rather than the standrard 1 ml, were used.
The basic method used during development of the purification procedure for LBP was a reconstitution assay in which fractions of acute phase serum were assayed for their ability to reconstitute "acute phase behavior" in NRS. The screening assay used was to mix a sample of the material to be tested with 1.0 ml of NRS at 37 degrees C. for 30 minutes. LPS and EDTA were then added to the concentrations given above, and the LPS-HDL binding reaction was allowed to proceed for ten minutes at 37 degrees before addition of CsCl and centrifugation. The 10 minute reaction time was chosen as a compromise between the times required for LPS to bind to HDL in NRS and APRS. […]
To quantitate LBP activity in purified fractions of APRS, the reconstitution assay just described was performed with a series of different amounts of the sample being assayed up to a maximum of 200 ul per ml NRS. After centrifugation and quantitation of the LPS in C1.3, a plot of percent LPS as C1.3 versus sample volume was made. […]

Gram-negative bacteria = conditions: similar conditions for LBP and BPI; cited from earlier work
[4] = Binding affinity of LBP for LPS; conditions: association constant
Excerpt: as §1, §4

[5] = concentration necessary to reduce the binding of 1 ug/ml LBP to the Re595 LPS-coated plate by 50 percent
[6] = concentration necessary to reduce the binding of 1 ug/ml LBP to the plate by 50 percent

| Molecule | ED50 (purified lapine LBP [1]; [5]) | Inhibition of LBP binding to LPS plate, in words (purified lapine LBP [1]) | IC50 (purified lapine LBP [1]; [5]) [µM] | IC50 (purified lapine LBP [1]; [6]) [µM] | also measured |
| --- | --- | --- | --- | --- | --- |
| Dextran sulfate | 73 ng/mL | fairly good ligands |  |  |  |
| CCCCCCCCCCC[C@@H](O)CC(=O)N[C@H]1[C@H](OC[C@H]2O[C@H](OP(=O)(O)O)[C@H](NC(=O)C[C@H](O)CCCCCCCCCCC)[C@@H](OC(=O)C[C@H](O)CCCCCCCCCCC)[C@@H]2O)O[C@H](CO)[C@@H](OP(=O)(O)O)[C@@H]1OC(=O)C[C@H](O)CCCCCCCCCCC [precursor IVA] |  |  |  |  | Binding of LBP to the substance (purified lapine LBP [2]): bind |
| CCCCCCCCCCCCCC(=O)OCC(COP(=O)(O)O)OC(=O)CCCCCCCCCCCCC (stereo not drawn) [Dimyristoyl phosphatidic acid, dimyristoyl phosphatidic acid] |  |  | 4.22 | 3.9 |  |
| Heparin | 21,000 ng/ml | inhibitory only at high concentrations |  |  |  |
| Nc1ncnc2c1ncn2[C@@H]1O[C@H](COP(=O)(O)O)[C@@H](O)[C@H]1O [AMP, adenosine-5'-monophosphate] |  | ineffective | > 2880 | > 2800 |  |
| 0-[2-amino-2-deoxy-N^2 -(3-hydroxytetradecanoyl)-beta-D-glucopyranosyl]-(1-6)-amino-2-deoxy-N^2 -(3-hydroxytetradecanoyl)-alpha-D-glucopyranose 1,4'-bisphosphate [DADG-BSA] | 540 ng/mL |  |  | 0.57 |  |
| CCCCCCCCCCCCCC(=O)O[C@H](CCCCCCCCCCC)CC(=O)O[C@@H]1[C@@H](NC(=O)C[C@@H](CCCCCCCCCCC)OC(=O)CCCCCCCCCCC)[C@H](OC[C@H]2O[C@H](OP(=O)(O)O)[C@H](NC(=O)C[C@H](O)CCCCCCCCCCC)[C@@H](OC(=O)C[C@H](O)CCCCCCCCCCC)[C@@H]2O)O[C@H](CO)[C@H]1OP(=O)(O)O [J5 LA (synthetic)] |  |  | 0.0222 | 0.02 |  |
| Lipoteichoic acid | 480 ng/mL | fairly good ligands |  |  |  |
| CCCCCCCCCCC[C@@H](O)CC(=O)N[C@H]1[C@@H](OP(=O)(O)O)O[C@H](CO)[C@@H](O)[C@@H]1OC(=O)C[C@H](O)CCCCCCCCCCC [Lipid x] |  |  | 3.93 | 3.9 | Binding of LBP to the substance (purified lapine LBP [2]): only poorly |
| B1 |  |  |  |  | Retardation of LPS binding to HDL / reconstitution of acute phase behavior in normal rabbit serum [3]: does not reconstitute the observed phenomena |
| B2 |  |  |  |  | Bactericidal effect (Gram-negative bacteria): no bactericidal effects; Binding affinities of LBP for LPS [4]: ~10^9 m^-1; Retardation of LPS binding to HDL / reconstitution of acute phase behavior in normal rabbit serum [3]: retards binding |
| B3 |  |  |  |  | Bactericidal effect (Gram-negative bacteria): kills |
